The target in test [1] is T1, Prostaglandin D2 receptor 2 (Homo sapiens, UniProt Q9Y5Y4).
T1 sequence (Q9Y5Y4 whole entry): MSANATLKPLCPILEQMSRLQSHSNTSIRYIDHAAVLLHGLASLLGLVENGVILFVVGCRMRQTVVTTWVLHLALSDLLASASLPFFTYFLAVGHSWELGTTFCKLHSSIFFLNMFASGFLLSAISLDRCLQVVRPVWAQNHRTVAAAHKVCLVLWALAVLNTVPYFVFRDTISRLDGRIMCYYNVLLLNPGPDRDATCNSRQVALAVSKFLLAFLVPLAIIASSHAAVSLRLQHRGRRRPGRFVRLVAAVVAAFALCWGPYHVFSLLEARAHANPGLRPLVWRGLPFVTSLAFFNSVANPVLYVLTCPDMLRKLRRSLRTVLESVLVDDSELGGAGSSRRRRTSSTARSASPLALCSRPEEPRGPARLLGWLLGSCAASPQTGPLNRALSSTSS
Nature of the test: Antagonist activity at CRTh2 (unknown origin) stably expressed in PGD2-stimulated CHO.K1 cells preincubated for 1 hr by radio-labelled [35S]-GTPgammaS binding assay. The test is classed as functional, cell-based. On the technique in general: Binding of GTPγS marks nucleotide exchange on a G protein.

Test [2] concerns the target T2, Prostaglandin D2 receptor 2 (Homo sapiens) (UniProt Q9Y5Y4).
T2 sequence (whole entry): T1 sequence (Q9Y5Y4 whole entry)
Particulars: CHO.K1; call rule not given here.

Test [3] has as its target T2, Prostaglandin D2 receptor 2 (Homo sapiens). The test is described as follows: Antagonist activity at CRTh2 (unknown origin) stably expressed in PGD2-stimulated CHO.K1 cells assessed as dissociation half-life at 10 times IC50 after 1 hr preincubation measured at 28 hrs after washout by radio-labelled [35S]-GTPgammaS binding assay. It counts as functional, cell-based.

In the case of `Cc1ccc2c(CC(=O)O)cn(-c3ccccc3Cn3ccnn3)c2n1`, in test [1] (read-out: IC50), the IC50 (as a rule, the concentration that gives 50% inhibition) is 1800 nM. Turning to `Cc1ccc2c(CC(=O)O)cn(-c3ccc(Cl)cc3Cn3c(C)nnc3C3CC3)c2n1`, the IC50 in test [1] (read-out: IC50) was 56 nM. Also, the T1/2 in test [2] is 20 h.

As for `Cc1ccc(-n2cc(CC(=O)O)c3ccc(C)nc32)c(Cn2ccnc2-c2ccccc2)c1`, in test [1] (read-out: IC50), the IC50 was found to be 30 nM. Besides, the T1/2 in test [2] was 1.2 h. As to `Cc1ccc2c(CC(=O)O)cn(-c3ccc(C(F)(F)F)cc3CSC(C)(C)C)c2n1`, the IC50 result in test [1] (cho.k1) is “Not Active”. The same measure, in the same setting: as for `COc1ccc(CC(=O)O)cc1-c1ccc(C(F)(F)F)cc1Cn1ccccc1=O`, the entry is “Not Active”. With `CCN(Cc1cc(C(F)(F)F)ccc1-n1cc(CC(=O)O)c2ccc(C)nc21)C(C)=O`, the IC50 in test [1] (read-out: IC50) is 10 nM. This compound gave a T1/2 in test [2] of 6 h.

Turning to `Cc1cn(Cc2ccccc2-n2cc(CC(=O)O)c3ccc(C)nc32)c(C)n1`, the IC50 entry in test [1] (cho.k1) is given as “Not Active”. As to `Cc1ccc2c(CC(=O)O)cn(-c3ccc(Cl)cc3Cc3cncnc3)c2n1`, in test [1] (read-out: IC50), the IC50 worked out at 1400 nM. Regarding `Cc1ccc2c(CC(=O)O)cn(-c3ccc(Cl)cc3Cc3cc(C)nn3C)c2n1`, the IC50 result in test [1] (cho.k1) is recorded as “Not Active”. For the compound `O=C(O)Cn1cc(-c2ccc(C(F)(F)F)cc2Cc2ocnc2C2CC2)c2cc(F)ccc21`, the IC50 in test [1] (read-out: IC50) was found to be 2600 nM.

In the case of `Cc1ccc2c(CC(=O)O)cn(-c3ccc(F)cc3Cc3c(C)cnn3C)c2n1`, the IC50 in test [1] (read-out: IC50) was 10 nM. Also, the T1/2 in test [2] amounted to 1.2 h. The like results for `Cc1noc(C)c1Cc1cc(C(F)(F)F)ccc1-c1cn(CC(=O)O)c2ccc(F)cc12` were, in that order, 20 nM and 10 h.

In the case of `Cc1ccc(-n2cc(CC(=O)O)c3ccc(C)nc32)c(Cn2ccnc2C)c1`, in test [1] (read-out: IC50), the IC50 stood at 250 nM. With `Cc1ccc(-n2cc(CC(=O)O)c3ccc(Cc4ccccc4)nc32)c(Cn2c(C)nnc2C)c1`, the IC50 in test [1] (read-out: IC50) came to 7 nM. The compound also had a T1/2 in test [2] of 20 h.

As to `Cc1ccc(-n2cc(CC(=O)O)c3ccc(C)nc32)c(Cn2c(C)nnc2C)c1`, the IC50 in test [1] (read-out: IC50) is 16 nM. The same compound registered a T1/2 in test [2] of 9 h. Turning to `Cc1cnn(C)c1Cc1cc(C(F)(F)F)ccc1-c1cn(CC(=O)O)c2ccc(F)cc12`, the IC50 in test [1] (read-out: IC50) turned out to be 64 nM. The T1/2 in test [2] stood at 2.5 h. On to `Cc1ccc2c(CC(=O)O)cn(-c3ccc(Cl)cc3Cn3c(C)nnc3Cc3ccccc3)c2n1`, for which, in test [1] (read-out: IC50), the IC50 is 11 nM. In test [2], this compound returned a T1/2 of 26 h.

Take `Cc1ccc2c(CC(=O)O)cn(-c3ccc(Cl)cc3Cn3c(C)nnc3CCc3ccccc3)c2n1`: in test [1] (read-out: IC50), the IC50 stood at 9 nM. This compound also yielded a T1/2 in test [2] of 26 h.

In the case of `CCN(Cc1cc(C(=O)NCCc2ccccc2)ccc1-n1cc(CC(=O)O)c2ccc(C)nc21)C(=O)C1CC1`, the IC50 in test [1] (read-out: IC50) turned out to be 8 nM. The T1/2 in test [2] was found to be 11 h. The like results for `Cc1c(-c2cccc3c2CCN(S(C)(=O)=O)C3)c2cc(F)ccc2n1CC(=O)O` were, in that order, 4 nM and 1.7 h. Regarding `Cc1ccc(-n2cc(CC(=O)O)c3ccc(C)nc32)c(Cc2ccnn2Cc2ccccc2)c1`, the IC50 in test [1] (read-out: IC50) stood at 1000 nM. Regarding `Cc1noc(C2CC2)c1Cc1cc(C(F)(F)F)ccc1-c1cn(CC(=O)O)c2ccc(C(F)(F)F)nc12`, the IC50 in test [1] (read-out: IC50) came to 23 nM. In test [2], this compound registered a T1/2 of 25 h. For `Cc1ccc2c(CC(=O)O)cn(-c3ccc(F)cc3Cc3c(C)noc3C)c2n1`, in that order: 2 nM and 3 h. Turning to `Cc1ccc2c(CC(=O)O)cn(-c3ccc(Cl)cc3Cc3cncnc3C(C)C)c2n1`, the IC50 in test [1] (read-out: IC50) came to 170 nM. Still for that read-out and setting: as for `Cc1ccc2c(CC(=O)O)cn(-c3ccccc3Cn3ccnc3)c2n1`, the figure is 580 nM. `Cc1ccc2c(CC(=O)O)cn(-c3ccc(Cl)cc3Cc3c(C)noc3Cc3ccccc3)c2n1`: the IC50 in test [1] (read-out: IC50) was determined as 3 nM. Moreover, the T1/2 in test [3] was 45 h. Turning to `Cc1ccc2c(CC(=O)O)cn(-c3ccc(Cl)cc3Cc3c(C4CC4)noc3C3CC3)c2n1`, the IC50 in test [1] (read-out: IC50) was determined as 6 nM. Moreover, the T1/2 in test [2] was found to be 22 h. Regarding `Cc1noc(C2CC2)c1Cc1cc(Cl)ccc1-n1cc(CC(=O)O)c2ccc(Cc3ccccc3)nc21`, the IC50 in test [1] (read-out: IC50) came out at 7 nM. In addition, the T1/2 in test [3] stood at 42 h. On to `Cc1ccc2c(CC(=O)O)cn(-c3ccc(F)cc3Cc3c(C)noc3C3CC3)c2n1`, for which the IC50 in test [1] (read-out: IC50) came out at 2 nM. Moreover, the T1/2 in test [2] was 6 h. In the case of `Cc1ccc2c(CC(=O)O)cn(-c3ccc(C(F)(F)F)cc3Cc3c(C4CC4)noc3C3CC3)c2n1`, the IC50 in test [1] (read-out: IC50) is 3 nM. In test [2], this compound yielded a T1/2 of 23 h.

As to `Cc1ccn2c(CC(=O)O)cc(-c3ccc(C(F)(F)F)cc3Cc3c(C)noc3C3CC3)c2n1`, in test [1] (read-out: IC50), the IC50 turned out to be 5 nM. This compound also displayed a T1/2 in test [2] of 12 h. In the case of `Cc1ccc(-n2cc(CC(=O)O)c3ccc(C)nc32)c(Cc2c(C)cnn2CC2CC2)c1`, in test [1] (read-out: IC50), the IC50 was determined as 4 nM. This compound also returned a T1/2 in test [2] of 10 h.

With `Cc1ccc2c(CC(=O)O)cc(-c3ccc(C(F)(F)F)cc3Cc3c(C)noc3C3CC3)n2n1`, the IC50 in test [1] (read-out: IC50) amounted to 3 nM. The compound also registered a T1/2 in test [2] of 14 h.

For the compound `Cc1noc(C2CC2)c1Cc1cc(C(F)(F)F)ccc1-c1cn(CC(=O)O)c2ccc(F)cc12`, in test [1] (read-out: IC50), the IC50 was 37 nM. The same compound gave a T1/2 in test [2] of 8 h. For `COc1ccc(CC(=O)O)cc1-c1ccc(C(F)(F)F)cc1Cn1c(C)nnc1C1CC1`, in that order: 27 nM and 1.5 h.

For `Cc1nnc(C2CC2)n1Cc1cc(C(F)(F)F)ccc1-n1cc(CC(=O)O)c2ccc(F)cc21`, in test [1] (read-out: IC50), the IC50 turned out to be 9 nM. This compound gave a T1/2 in test [2] of 16 h. On to `Cc1ccc(-n2cc(CC(=O)O)c3ccc(C)nc32)c(Cn2nncc2C)c1`, for which, in test [1] (read-out: IC50), the IC50 came to 150 nM.

For the compound `CCCc1nc2ccccc2n1Cc1ccccc1-n1cc(CC(=O)O)c2ccc(C)nc21`, the IC50 in test [1] (read-out: IC50) was found to be 51 nM. The compound also gave a T1/2 in test [2] of 0.6 h. For `Cc1ccc2c(n1)c(-c1ccc(C(F)(F)F)cc1Cc1c(C)noc1C)cn2CC(=O)O`, the 50% inhibitory concentration (IC50) in test [1] (read-out: IC50) came to 5 nM. This compound also came in with a T1/2 in test [2] of 5 h. The like results for `Cc1noc(C)c1-c1cccc(-c2c(C)n(CC(=O)O)c3ccc(F)cc23)c1` were, in that order, 6 nM and 18 h. The like results for `Cc1noc(C2CC2)c1Cc1cc(F)ccc1-c1cn(CC(=O)O)c2ccc(C(F)(F)F)cc12` were, in that order, 37 nM and 27 h. Take `CCN(Cc1cc(C(F)(F)F)ccc1-c1cc(CC(=O)O)ccc1OC)C(=O)C1CC1`: the IC50 in test [1] (read-out: IC50) came out at 14 nM. In test [2], the T1/2 was determined as 2 h. For `Cc1ccc2c(CC(=O)O)cn(-c3ccc(C(F)(F)F)cc3Cc3c(C)noc3C3CC3)c2n1`, in that order: 1 nM and 13 h.

With `Cc1nnc(C2CC2)n1Cc1cc(C(F)(F)F)ccc1-c1cn(CC(=O)O)c2ccc(F)cc12`, the IC50 in test [1] (read-out: IC50) stood at 6 nM. Besides, in test [2], the T1/2 was found to be 20 h.

Take `Cc1ccc2c(CC(=O)O)cn(-c3ccccc3Cn3nc(C)nc3C)c2n1`: the IC50 entry in test [1] (cho.k1) is on record as “Not Active”.

These data come from ChEMBL document CHEMBL3351469, “Structure-activity relationships (SAR) and structure-kinetic relationships (SKR) of bicyclic heteroaromatic acetic acids as potent CRTh2 antagonists III: the role of a hydrogen-bond acceptor in long receptor residence times” (Bioorg Med Chem Lett, 2014).
